pKi: −log10 of the molar value.

The target of one test is Glutamate receptor 3 (Rattus norvegicus, UniProt P19492).
Sequence of Glutamate receptor 3 (P19492 whole entry): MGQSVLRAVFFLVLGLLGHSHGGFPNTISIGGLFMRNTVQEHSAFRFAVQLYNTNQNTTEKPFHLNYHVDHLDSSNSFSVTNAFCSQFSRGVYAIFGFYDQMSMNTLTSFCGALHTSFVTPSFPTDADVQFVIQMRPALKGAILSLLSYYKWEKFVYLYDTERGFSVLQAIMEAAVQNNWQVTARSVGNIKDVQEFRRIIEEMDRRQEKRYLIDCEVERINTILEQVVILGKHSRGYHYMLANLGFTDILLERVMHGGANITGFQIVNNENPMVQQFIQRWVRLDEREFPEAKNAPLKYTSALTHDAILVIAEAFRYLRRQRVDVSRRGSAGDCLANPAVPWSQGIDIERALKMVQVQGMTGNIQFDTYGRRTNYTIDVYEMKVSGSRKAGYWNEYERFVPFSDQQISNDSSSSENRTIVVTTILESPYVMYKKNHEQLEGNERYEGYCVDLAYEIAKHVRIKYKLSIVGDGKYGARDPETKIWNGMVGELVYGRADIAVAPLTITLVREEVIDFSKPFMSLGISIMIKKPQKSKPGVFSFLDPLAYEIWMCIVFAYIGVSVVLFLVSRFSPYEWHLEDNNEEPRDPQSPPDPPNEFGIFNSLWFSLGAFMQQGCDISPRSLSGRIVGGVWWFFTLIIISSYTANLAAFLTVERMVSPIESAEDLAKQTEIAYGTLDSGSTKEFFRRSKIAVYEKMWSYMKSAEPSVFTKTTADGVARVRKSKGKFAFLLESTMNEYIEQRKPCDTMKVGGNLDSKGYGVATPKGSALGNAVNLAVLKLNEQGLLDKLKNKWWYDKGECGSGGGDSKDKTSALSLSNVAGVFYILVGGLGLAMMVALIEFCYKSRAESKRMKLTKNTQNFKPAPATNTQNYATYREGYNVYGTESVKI
Compound `O=C(O)C1NCCc2o[nH]c(=O)c21` (configuration not stated) [CAS_129091] showed a pKi of less than 5.00.
The same measure, in the same setting: for `Cc1o[nH]c(=O)c1CC(C(=O)O)N(C)C` (configuration not stated) [N,N-dimethyl-AMPA] the value was less than 5.00; for `CNC(Cc1c(C)o[nH]c1=O)C(=O)O` (configuration not stated) [N-methyl-AMPA], less than 5.00.

In a further test the target is Glutamate receptor ionotropic, NMDA 1 (Rattus norvegicus, UniProt P35439).
In turn, `CNC(C(=O)O)c1c(C)o[nH]c1=O` (configuration not stated) had a pKi of less than 5.00.
The same measure, in the same setting: in the case of `O=C(O)C1NCCc2o[nH]c(=O)c21` (configuration not stated) [CAS_129091] it was less than 5.00.
For the compound `Cc1o[nH]c(=O)c1C(C(=O)O)N(C)C` (configuration not stated) [N,N-dimethyl-AMAA], the pKi was less than 5.00.
Same read-out and setting: in the case of `O=C(O)c1cccnc1C(=O)O` [pyridine-2,3-dicarboxylic acid] it was less than 5.00.
